In patent US20240360081A1, “SULFONAMIDE OREXIN RECEPTOR AGONISTS AND USES THEREOF” (Jazz Pharmaceuticals Ireland Limited, priority 2021, published 2024):

The molecules below were run against T1, human recombinant OX2 (hOX2) receptor expressed in CHO cells (Homo sapiens, UniProt O43614) (assay: IP-1 accumulation assay (IP-One HTRF) in hOX2-CHO cells). Conditions: 60 min at 37° C., 11 points CRC, response as % of maximal OX-A response.
T1 construct: host or cells: CHO cells (hOX2-CHO)
T1 sequence (O43614 1-444): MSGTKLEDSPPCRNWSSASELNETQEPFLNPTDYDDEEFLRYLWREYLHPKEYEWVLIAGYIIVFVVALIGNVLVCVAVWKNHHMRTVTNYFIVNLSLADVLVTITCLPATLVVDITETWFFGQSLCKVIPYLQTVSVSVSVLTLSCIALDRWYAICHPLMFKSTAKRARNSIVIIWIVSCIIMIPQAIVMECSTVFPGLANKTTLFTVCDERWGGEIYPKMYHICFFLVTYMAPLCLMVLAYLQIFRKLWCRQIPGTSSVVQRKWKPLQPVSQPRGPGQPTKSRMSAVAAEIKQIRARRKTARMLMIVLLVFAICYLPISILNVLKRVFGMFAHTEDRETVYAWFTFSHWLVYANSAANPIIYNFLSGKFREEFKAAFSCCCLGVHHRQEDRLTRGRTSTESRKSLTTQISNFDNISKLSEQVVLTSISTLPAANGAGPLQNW
Type: cell-based
Procedure, shortened: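 CHO cells expressing hOX2, 20,000 cells/well in HBSS with 20 mM HEPES pH 7.4, 50 mM LiCl, 0.1% BSA; 11-point compound series, 0.5% DMSO final, 60 min at 37 °C. IP-1 by HTRF (665/615 ratio) after 60 min at room temperature, as % of maximal OX-A response; EC50 by four-parameter logistic fit, mean of ≥2 experiments in duplicate.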
With Cc1cc(C(CNS(=O)(=O)N(C)C)CO[C@H]2CC[C@@H](c3cccc(F)c3)CC2)c(=O)n(C(F)F)c1 (stereo partly drawn) [Example 5aa, 1-(difluoromethyl)-3-{1-[(dimethylsulfamoyl)amino]-3-{[(CIS)-4-(3-fluorophenyl)cyclohexyl]oxy}propan-2-yl}-5-methyl-1,2-dihydropyridin-2-one] the EC50 was under 0.1 µM.
Molecule COc1ccn(C)c(=O)c1C(CNS(C)(=O)=O)CO[C@H]1CC[C@@H](c2ccccc2)CC1 (stereo partly drawn) [Example 5b, N-[2-(4-methoxy-1-methyl-2-oxo-1,2-dihydropyridin-3-yl)-3-{[(CIS)-4-phenylcyclohexyl]oxy}propyl]methanesulfonamide] has an EC50 of 1 to 10 µM.
Cc1cc(C(CNS(C)(=O)=O)CO[C@H]2CC[C@@H](c3cccc(F)c3)CC2)c(=O)n(CC#N)c1 (stereo partly drawn) [Example 5e, N-{2-[1-(cyanomethyl)-5-methyl-2-oxo-1,2-dihydropyridin-3-yl]-3-{[(CIS)-4-(3-fluorophenyl)cyclohexyl]oxy}propyl}methanesulfonamide] gave an EC50 of 0.1 to 1 µM.
For CS(=O)(=O)NCC(CO[C@H]1CC[C@@H](c2ccccc2)CC1)c1cccn2cnnc12 (stereo partly drawn) [Example 5f, N-(3-{[(CIS)-4-phenylcyclohexyl]oxy}-2-{[1,2,4]triazolo[4,3-a]pyridin-8-yl}propyl)methanesulfonamide], the EC50 was 0.1 to 1 µM.
For Cc1cc(C(CNS(=O)(=O)N(C)C)CO[C@H]2CC[C@@H](c3ccccc3)CC2)n2nccc2c1 (stereo partly drawn) [Example 5g, dimethyl[(2-{5-methylpyrazolo[1,5-a]pyridin-7-yl}-3-{[(CIS)-4-phenylcyclohexyl]oxy}propyl)sulfamoyl]amine], the EC50 was 0.1 to 1 µM.
With CN(C)S(=O)(=O)NCC(CO[C@H]1CC[C@@H](c2cccc(F)c2)CC1)c1cccc2c1nnn2C (stereo partly drawn) [Example 5h, dimethyl({[2-(1-methyl-1H-1,2,3-benzotriazol-4-yl)-3-{[(CIS)-4-(3-fluorophenyl)cyclohexyl]oxy}propyl]sulfamoyl})amine] the EC50 was 1 to 10 µM.
Cc1cc(C)nc(C(CNS(C)(=O)=O)CO[C@H]2CC[C@@H](c3ccccc3)CC2)c1 (stereo partly drawn) [Example 5i, N-[2-(4,6-dimethylpyridin-2-yl)-3-{[(CIS)-4-phenylcyclohexyl]oxy}propyl]methanesulfonamide] was tested, and the EC50 was 1 to 10 µM.
Work on Cc1cc(C)[n+]([O-])c(C(CNS(C)(=O)=O)CO[C@H]2CC[C@@H](c3ccccc3)CC2)c1 (stereo partly drawn) [Example 5j, 2-(1-methanesulfonamido-3-{[(CIS)-4-phenylcyclohexyl]oxy}propan-2-yl)-4,6-dimethylpyridin-1-ium-1-olate] yielded an EC50 of under 0.1 µM.
In the case of Cc1cc(C(CNS(=O)(=O)CF)CO[C@H]2CC[C@@H](c3cccc(F)c3)CC2)c(=O)n(C)c1 (stereo partly drawn) [Example 5m, N-[2-(1,5-dimethyl-2-oxo-1,2-dihydropyridin-3-yl)-3-{[(CIS)-4-(3-fluorophenyl)cyclohexyl]oxy}propyl]-1-fluoromethanesulfonamide], the EC50 is reported as under 0.1 µM.
Cc1cc(C(CNS(C)(=O)=O)COC2CCN(c3ncc(F)cn3)CC2)c(=O)n(C)c1 (stereo not drawn) [Example 5p, N-[2-(1,5-dimethyl-2-oxo-1,2-dihydropyridin-3-yl)-3-{[1-(5-fluoropyrimidin-2-yl)piperidin-4-yl]oxy}propyl]methanesulfonamide] showed an EC50 of over 10 µM.
Work on Cc1cc(C(CNS(=O)(=O)N(C)C)CO[C@H]2CC[C@@H](c3cccc(F)c3)CC2)c(=O)n(C)c1 (stereo partly drawn) [Example 5q, 3-{1-[(dimethylsulfamoyl)amino]-3-{[(CIS)-4-(3-fluorophenyl)cyclohexyl]oxy}propan-2-yl}-1,5-dimethyl-1,2-dihydropyridin-2-one] yielded an EC50 of under 0.1 µM.
Work on Cc1cc(C(CNS(=O)(=O)N(C)C)CO[C@H]2CC[C@@H](c3cc(F)cc(F)c3)CC2)c(=O)n(C)c1 (stereo partly drawn) [Example 5u, 3-{1-[(dimethylsulfamoyl)amino]-3-{[(CIS)-4-(3,5-difluorophenyl)cyclohexyl]oxy}propan-2-yl}-1,5-dimethyl-1,2-dihydropyridin-2-one] yielded an EC50 of under 0.1 µM.
